Reference: publication PMC10368370, “Development of o-aminobenzamide salt derivatives for improving water solubility and anti-undifferentiated gastric cancer” (Frontiers in Pharmacology, 2023)

Assay: Pharmacokinetic study
Type: in vivo, SD rats
Procedure: 7–8-week Male SD rats weighing 180–220 g were allowed for this experiment. The rats were fasted 12 h except for water. The solution was administered to rats by intravenous injection of 10% ethanol +10% solutol as solvent and intragastric injection of 5% castor oil +5% solutol as solvent. The dose concentration was 8 mg/mL for intravenous injection and 10 mg/mL for gavage.
Twelve male SD rats were divided into 4 groups with 3 rats in each group. Group 1 was F8-intravenous injection group, the dose was 20 mg/kg; Group 2 was F8- intragastric administration group, the dose was 100 mg/kg; Group 3 was F8·2HCl-intragastric administration group, the dose was 100 mg/kg. Blank blood was collected before administration, and blood was collected at predetermined time points after administration:
Intravenous injection group: before administration, 2 min, 5 min, 15 min, 30 min, 1 h, 2 h, 4 h, 8 h, 12 h, 24 h. Intragastric administration group: Before administration, 5 min, 15 min, 30 min, 1 h, 2 h, 4 h, 6 h, 8 h, 12 h, 24 h. About 0.5 mL of blood was collected and placed in an EDTA-K2 tube at […]. The plasma was centrifuged and stored at −80°C. The samples were detected by liquid-mass spectrometry analysis system. The chromatographic column used was ODS-C18 (4.6 × 50 mm, 3 µm). The chromatographic conditions were as follows: Mobile phase A is aqueous phase, […] (including 0.1% formic acid); Mobile phase B is organic, 95% acetonitrile (containing 0.1% formic acid). Flow rate of 0.4 mL/min, column temperature: room temperature, according to the drug plasma concentration data, calculated pharmacokinetic parameters using DAS 2.0 software.
After oral administration, drugs need to go through four stages, namely, absorption, distribution, metabolism and excretion. However, the changes in solubility of drugs after salting only affect the absorption stage. Since absorption is accompanied by a dissolution process, the water solubility and dissolution rate of drugs are the main factors that determine their absorption, and then affect their oral bioavailability ([Elder et al., 2013]). Under the stimulation of cell activity and increased solubility, pharmacokinetic experiments were carried out to understand the drug exposure and provide a basis for further druggability of compound F8. In this study, compound F8 and F8·2HCl were administered in two different ways: tail vein injection (20 mg/kg) and gavage (100 mg/kg), and pharmacokinetic parameters were measured in Sprague-Dawley (SD) rats (Figures 3, 4).

[1] = SD rats, 100 mg/kg, route ip (methods: intragastric), 100 mg/kg
[2] = SD rats, oral administration 100 mg/kg, 100 mg/kg

For `O=C(NCc1ccc(NC(=O)c2cc(F)ccc2N2CCCC2)cc1)OCc1cccnc1` [F8·2HCl], the “AUC (0-∞)” value [1] was 1770 ng·h/mL, the Cmax [1] was 580 ng/mL and the T1/2 [1] was 3.63 h. The Tmax [1] was 1.42 h, the bioavailability (SD rats, oral 100 mg/kg vs iv 20 mg/kg) was 5.06% and the area under the concentration-time curve (AUC0-t) [2] was 1770 ng·h/mL. For the same compound, the peak plasma concentration [2] was 0.58 µg/mL, the half-life extension relative to F8 (male, Sprague-Dawley, rat, plasma, po, 100 mg/kg, same oral dose, F8·2HCl vs F8) was 1 h and the “increase of Tmax relative to F8” value (same oral dose, F8·2HCl vs F8) was about 10 times.
